The results in this text go back to ChEMBL document CHEMBL4028801, “A multifactorial approach to hepatobiliary transporter assessment enables improved therapeutic compound development” (Toxicol Sci, 2013).

As usually defined, the IC50 is the concentration that inhibits the measured activity by half.

For experiment [1], the target named is ATP-binding cassette sub-family C member 3 (Homo sapiens, UniProt O15438). The experiment can be described thus: Inhibition of human MRP3 overexpressed in Sf9 insect cell membrane vesicles assessed as uptake of [3H]-estradiol-17beta-D-glucuronide in presence of ATP and GSH measured after 10 mins by membrane vesicle transport assay. The format is ADME, cell-based.

A further experiment concerns the target Bile salt export pump (Homo sapiens, UniProt O95342). The experiment can be described thus: Inhibition of human BSEP overexpressed in Sf9 cell membrane vesicles assessed as uptake of [3H]-taurocholate in presence of ATP measured after 15 to 20 mins by membrane vesicle transport assay. The format is ADME, cell-based.
Experiment [2] concerns the target T1, ATP-binding cassette sub-family C member 4 (Homo sapiens, UniProt O15439).
T1 sequence (O15439 whole entry): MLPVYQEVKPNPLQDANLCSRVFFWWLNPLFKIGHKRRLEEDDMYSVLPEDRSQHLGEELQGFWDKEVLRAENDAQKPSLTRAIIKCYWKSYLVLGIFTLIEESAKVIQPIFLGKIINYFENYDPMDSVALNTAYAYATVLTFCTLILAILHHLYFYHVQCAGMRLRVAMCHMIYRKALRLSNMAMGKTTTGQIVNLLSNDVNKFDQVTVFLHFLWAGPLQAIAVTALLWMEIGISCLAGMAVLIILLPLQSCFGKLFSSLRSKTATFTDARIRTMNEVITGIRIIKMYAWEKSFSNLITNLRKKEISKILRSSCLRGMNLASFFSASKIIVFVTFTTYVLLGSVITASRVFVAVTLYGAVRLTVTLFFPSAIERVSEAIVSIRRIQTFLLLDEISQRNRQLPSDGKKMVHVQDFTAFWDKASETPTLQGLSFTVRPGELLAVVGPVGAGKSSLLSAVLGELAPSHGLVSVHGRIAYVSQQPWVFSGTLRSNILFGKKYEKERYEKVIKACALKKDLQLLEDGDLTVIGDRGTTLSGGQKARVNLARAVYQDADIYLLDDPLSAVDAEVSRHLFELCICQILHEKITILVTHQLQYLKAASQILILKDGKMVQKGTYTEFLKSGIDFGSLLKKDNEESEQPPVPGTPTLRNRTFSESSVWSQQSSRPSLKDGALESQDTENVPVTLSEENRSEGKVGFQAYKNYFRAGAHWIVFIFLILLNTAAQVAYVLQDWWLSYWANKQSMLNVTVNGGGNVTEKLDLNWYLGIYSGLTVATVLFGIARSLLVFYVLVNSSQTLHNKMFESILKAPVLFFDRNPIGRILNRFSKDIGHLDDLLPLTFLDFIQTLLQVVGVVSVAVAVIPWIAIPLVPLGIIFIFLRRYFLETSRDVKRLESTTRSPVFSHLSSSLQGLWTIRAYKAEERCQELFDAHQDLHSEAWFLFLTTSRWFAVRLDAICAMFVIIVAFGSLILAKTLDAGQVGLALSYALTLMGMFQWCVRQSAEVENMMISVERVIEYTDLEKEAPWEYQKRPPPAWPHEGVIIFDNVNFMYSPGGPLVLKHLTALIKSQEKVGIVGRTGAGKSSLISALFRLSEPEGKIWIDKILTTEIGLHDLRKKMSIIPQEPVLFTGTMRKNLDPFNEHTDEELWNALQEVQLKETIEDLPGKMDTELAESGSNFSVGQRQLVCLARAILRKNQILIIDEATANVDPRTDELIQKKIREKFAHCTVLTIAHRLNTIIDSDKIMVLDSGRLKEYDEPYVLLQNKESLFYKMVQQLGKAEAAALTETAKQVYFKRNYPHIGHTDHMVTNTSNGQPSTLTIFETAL
The experiment can be described thus: Inhibition of human MRP4 overexpressed in Sf9 cell membrane vesicles assessed as uptake of [3H]-estradiol-17beta-D-glucuronide in presence of ATP and GSH measured after 20 mins by membrane vesicle transport assay. The format is ADME, cell-based.

In experiment [3] the target is ATP-binding cassette sub-family C member 2 (Homo sapiens, UniProt Q92887). In words: Inhibition of human MRP2 overexpressed in Sf9 cell membrane vesicles assessed as uptake of [3H]-estradiol-17beta-D-glucuronide in presence of ATP and GSH measured after 20 mins by membrane vesicle transport assay.

Positions of bridges follow the written chain, without caps; N, C: chain ends. Non-standard residues stand in square brackets, D forms with d. Residues, ends and D or L forms follow the SMILES beside them. hArg = N=C(N)NCCCC[C@H](N)C(=O)O; Mpa = O=C(O)CCS Bounds are passed on as bounds.

Sequence of ATP-binding cassette sub-family C member 3 (O15438 whole entry): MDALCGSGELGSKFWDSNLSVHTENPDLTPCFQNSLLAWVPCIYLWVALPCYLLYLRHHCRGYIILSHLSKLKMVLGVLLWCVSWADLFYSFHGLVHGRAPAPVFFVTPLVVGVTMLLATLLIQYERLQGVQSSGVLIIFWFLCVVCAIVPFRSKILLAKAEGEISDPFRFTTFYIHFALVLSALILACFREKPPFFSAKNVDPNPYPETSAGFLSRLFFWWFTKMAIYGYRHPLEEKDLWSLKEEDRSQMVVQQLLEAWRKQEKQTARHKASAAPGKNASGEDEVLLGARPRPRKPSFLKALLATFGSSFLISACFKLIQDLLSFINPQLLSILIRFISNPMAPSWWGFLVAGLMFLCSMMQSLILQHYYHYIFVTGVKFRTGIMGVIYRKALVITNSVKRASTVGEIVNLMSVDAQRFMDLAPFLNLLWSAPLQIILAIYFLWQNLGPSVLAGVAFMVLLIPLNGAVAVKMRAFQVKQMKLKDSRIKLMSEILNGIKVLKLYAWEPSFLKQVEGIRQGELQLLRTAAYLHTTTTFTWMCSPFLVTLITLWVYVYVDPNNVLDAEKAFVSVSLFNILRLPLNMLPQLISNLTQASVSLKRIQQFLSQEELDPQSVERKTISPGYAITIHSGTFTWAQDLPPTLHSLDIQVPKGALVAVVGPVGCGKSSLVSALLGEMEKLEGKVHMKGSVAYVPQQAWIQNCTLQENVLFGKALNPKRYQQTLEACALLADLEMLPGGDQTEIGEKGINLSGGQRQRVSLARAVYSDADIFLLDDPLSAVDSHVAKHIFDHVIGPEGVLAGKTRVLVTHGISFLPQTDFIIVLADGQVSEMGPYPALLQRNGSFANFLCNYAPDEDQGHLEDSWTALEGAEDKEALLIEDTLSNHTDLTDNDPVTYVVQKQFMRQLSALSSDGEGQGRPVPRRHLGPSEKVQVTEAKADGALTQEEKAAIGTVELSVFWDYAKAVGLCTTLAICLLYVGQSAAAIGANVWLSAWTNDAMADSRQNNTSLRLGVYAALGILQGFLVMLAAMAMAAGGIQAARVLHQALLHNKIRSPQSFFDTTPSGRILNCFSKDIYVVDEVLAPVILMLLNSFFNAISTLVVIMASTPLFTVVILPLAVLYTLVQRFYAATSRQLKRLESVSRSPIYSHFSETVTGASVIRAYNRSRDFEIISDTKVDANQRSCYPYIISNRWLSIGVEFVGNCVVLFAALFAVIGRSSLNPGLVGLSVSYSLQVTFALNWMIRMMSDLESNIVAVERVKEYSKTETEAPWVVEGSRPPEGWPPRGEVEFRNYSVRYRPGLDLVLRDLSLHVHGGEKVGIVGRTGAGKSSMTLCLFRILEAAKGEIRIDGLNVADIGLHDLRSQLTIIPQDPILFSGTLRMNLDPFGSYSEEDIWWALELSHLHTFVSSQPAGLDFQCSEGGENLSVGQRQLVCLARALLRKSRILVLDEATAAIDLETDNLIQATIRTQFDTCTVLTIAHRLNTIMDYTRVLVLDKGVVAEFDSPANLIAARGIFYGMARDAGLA
Sequence of Bile salt export pump (O95342 whole entry): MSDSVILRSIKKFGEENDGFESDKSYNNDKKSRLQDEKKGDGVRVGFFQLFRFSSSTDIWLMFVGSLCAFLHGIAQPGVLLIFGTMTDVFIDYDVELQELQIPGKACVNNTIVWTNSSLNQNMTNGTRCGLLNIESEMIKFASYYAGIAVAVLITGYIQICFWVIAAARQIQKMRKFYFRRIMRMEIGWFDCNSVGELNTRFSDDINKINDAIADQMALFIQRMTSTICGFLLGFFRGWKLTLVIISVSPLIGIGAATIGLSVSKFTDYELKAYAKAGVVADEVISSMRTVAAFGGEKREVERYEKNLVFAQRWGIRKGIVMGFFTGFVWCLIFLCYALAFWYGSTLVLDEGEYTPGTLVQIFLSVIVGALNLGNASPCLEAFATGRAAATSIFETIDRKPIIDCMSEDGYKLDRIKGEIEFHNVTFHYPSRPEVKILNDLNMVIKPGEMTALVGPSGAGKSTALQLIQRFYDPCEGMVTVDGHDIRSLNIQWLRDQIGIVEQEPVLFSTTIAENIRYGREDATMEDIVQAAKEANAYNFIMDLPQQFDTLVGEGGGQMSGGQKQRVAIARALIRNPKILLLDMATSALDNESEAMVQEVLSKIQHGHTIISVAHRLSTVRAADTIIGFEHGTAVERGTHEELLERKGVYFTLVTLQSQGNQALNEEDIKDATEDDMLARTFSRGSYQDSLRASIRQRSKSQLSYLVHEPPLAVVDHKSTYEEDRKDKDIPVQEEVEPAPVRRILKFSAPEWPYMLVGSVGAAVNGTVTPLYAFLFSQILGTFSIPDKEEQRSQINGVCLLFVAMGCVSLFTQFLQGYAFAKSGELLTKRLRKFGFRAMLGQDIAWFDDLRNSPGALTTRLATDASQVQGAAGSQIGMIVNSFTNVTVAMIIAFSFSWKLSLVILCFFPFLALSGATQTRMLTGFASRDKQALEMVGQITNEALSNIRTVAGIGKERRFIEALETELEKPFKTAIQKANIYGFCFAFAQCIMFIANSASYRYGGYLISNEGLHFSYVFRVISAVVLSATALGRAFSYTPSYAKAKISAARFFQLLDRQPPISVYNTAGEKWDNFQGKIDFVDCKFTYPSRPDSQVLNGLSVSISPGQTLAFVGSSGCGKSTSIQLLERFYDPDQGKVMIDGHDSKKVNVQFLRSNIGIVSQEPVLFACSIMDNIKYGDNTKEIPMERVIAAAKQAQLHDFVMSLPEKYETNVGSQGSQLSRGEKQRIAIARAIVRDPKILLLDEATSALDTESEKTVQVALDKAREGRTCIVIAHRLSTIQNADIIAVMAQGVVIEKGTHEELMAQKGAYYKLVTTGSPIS
Sequence of ATP-binding cassette sub-family C member 2 (Q92887 whole entry): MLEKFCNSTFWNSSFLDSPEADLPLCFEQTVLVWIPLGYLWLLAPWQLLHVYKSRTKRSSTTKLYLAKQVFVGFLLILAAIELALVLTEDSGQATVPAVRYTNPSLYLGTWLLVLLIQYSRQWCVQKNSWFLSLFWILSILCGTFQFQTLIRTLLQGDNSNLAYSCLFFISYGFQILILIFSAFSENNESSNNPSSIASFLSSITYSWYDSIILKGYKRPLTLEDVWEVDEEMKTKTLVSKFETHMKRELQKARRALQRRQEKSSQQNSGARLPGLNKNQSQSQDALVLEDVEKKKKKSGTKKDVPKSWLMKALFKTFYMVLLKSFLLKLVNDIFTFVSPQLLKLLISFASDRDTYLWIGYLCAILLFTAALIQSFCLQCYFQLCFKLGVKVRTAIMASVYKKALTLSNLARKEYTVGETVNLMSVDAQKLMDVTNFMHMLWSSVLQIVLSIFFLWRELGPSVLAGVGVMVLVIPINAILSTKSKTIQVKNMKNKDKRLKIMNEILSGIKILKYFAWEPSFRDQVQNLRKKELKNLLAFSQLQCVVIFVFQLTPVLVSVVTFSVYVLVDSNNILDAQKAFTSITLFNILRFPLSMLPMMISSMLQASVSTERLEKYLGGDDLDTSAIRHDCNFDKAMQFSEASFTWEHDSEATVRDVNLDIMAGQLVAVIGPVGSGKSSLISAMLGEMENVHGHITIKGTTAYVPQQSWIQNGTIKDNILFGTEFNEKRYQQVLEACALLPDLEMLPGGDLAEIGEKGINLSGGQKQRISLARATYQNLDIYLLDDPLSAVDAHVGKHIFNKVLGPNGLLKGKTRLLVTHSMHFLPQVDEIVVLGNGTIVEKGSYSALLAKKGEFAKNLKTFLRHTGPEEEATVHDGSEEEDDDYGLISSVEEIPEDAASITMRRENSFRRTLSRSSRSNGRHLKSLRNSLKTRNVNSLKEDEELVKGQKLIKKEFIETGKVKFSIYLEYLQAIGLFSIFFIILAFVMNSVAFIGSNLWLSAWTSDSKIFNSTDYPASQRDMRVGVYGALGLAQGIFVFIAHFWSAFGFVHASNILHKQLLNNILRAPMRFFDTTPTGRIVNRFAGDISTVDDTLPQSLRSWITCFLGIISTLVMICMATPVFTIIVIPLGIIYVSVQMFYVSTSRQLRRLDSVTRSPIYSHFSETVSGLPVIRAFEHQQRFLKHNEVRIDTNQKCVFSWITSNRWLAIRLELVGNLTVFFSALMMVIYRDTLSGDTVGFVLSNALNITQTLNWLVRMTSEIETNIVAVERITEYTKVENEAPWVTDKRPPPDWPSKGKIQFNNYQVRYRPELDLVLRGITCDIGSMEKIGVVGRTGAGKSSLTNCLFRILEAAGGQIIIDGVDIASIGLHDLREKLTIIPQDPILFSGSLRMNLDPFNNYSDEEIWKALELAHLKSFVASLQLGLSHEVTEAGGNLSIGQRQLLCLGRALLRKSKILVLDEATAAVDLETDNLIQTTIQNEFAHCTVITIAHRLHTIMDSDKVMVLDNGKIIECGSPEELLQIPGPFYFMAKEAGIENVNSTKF

Take `CCCCC(=O)N(Cc1ccc(-c2ccccc2-c2nnn[nH]2)cc1)[C@H](C(=O)O)C(C)C`: the IC50 (in experiment [1]; on Bile salt export pump; in experiment [2]; in experiment [3]) was more than 133 µM each time.

On to `CCOC(=O)[C@H](CCc1ccccc1)N[C@@H](C)C(=O)N1[C@H](C(=O)O)C[C@@H]2CCC[C@@H]21`, for which the half-inhibitory concentration (IC50) (in experiment [1]; at Bile salt export pump; in experiment [2]; in experiment [3]) was more than 133 µM each time.

For the compound `CC(=O)NS(=O)(=O)c1ccc(N)cc1`, the IC50 (in experiment [1]; at Bile salt export pump; in experiment [2]; in experiment [3]) was more than 133 µM in each case.

Consider `O=C(CC(=O)C(F)(F)F)c1cccs1`, for which the half-maximal inhibitory concentration (IC50) (in experiment [1]; on Bile salt export pump; in experiment [2]; in experiment [3]) was more than 133 µM throughout.

`COc1ccc(-c2ccc3cc(C(=O)O)ccc3c2)cc1C12CC3CC(CC(C3)C1)C2`: the half-maximal inhibitory concentration (IC50) (in experiment [1]; at Bile salt export pump; in experiment [2]; in experiment [3]) was more than 133 µM in each case.

As to `CNS(=O)(=O)Cc1ccc2[nH]cc(CCN(C)C)c2c1`, the half-inhibitory concentration (IC50) (in experiment [1]; on Bile salt export pump; in experiment [2]; in experiment [3]) was more than 133 µM throughout.

Consider `CC[C@@H](C(N)=O)N1CCCC1=O`, for which the half-inhibitory concentration (IC50) (in experiment [1]; on Bile salt export pump; in experiment [2]; in experiment [3]) was more than 133 µM in each case.

As to `Cc1ccc(-c2nc3ccc(C)cn3c2CC(=O)N(C)C)cc1`, the IC50 (in experiment [1]; on Bile salt export pump; in experiment [2]; in experiment [3]) was more than 133 µM each time.

Take `O=C(O)c1ccccc1-c1c2ccc(=O)cc-2oc2cc(O)ccc12`: the half-maximal inhibitory concentration (IC50) (in experiment [1]; at Bile salt export pump; in experiment [2]; in experiment [3]) was more than 133 µM throughout.

In the case of `O=c1[nH]c(=O)n([C@H]2CCCO2)cc1F`, the concentration for half-maximal inhibition (IC50) (in experiment [1]; on Bile salt export pump; in experiment [2]; in experiment [3]) was more than 133 µM throughout.

With `O=C(O[C@@H]1C[C@@H]2C[C@H]3C[C@H](C1)N2CC3=O)c1c[nH]c2ccccc12`, the IC50 (in experiment [1]; on Bile salt export pump; in experiment [2]; in experiment [3]) was more than 133 µM in each case.

On to `COc1ccccc1N1CCN(CCCNc2cc(=O)n(C)c(=O)n2C)CC1`, for which the half-maximal inhibitory concentration (IC50) (in experiment [1]; on Bile salt export pump; in experiment [2]; in experiment [3]) was more than 133 µM in each case.

For `CC[C@H](C)[C@@H]1NC(=O)[C@H](Cc2ccc(O)cc2)NC(=O)[C@@H](N)CSSC[C@@H](C(=O)N2CCC[C@H]2C(=O)N[C@@H](CC(C)C)C(=O)NCC(N)=O)NC(=O)[C@H](CC(N)=O)NC(=O)[C@H](CCC(N)=O)NC1=O`, the half-inhibitory concentration (IC50) (in experiment [1]; on Bile salt export pump; in experiment [2]; in experiment [3]) was more than 133 µM each time.

Turning to `NC(=O)CN1CCCC1=O`, the half-inhibitory concentration (IC50) (in experiment [1]; on Bile salt export pump; in experiment [2]; in experiment [3]) was more than 133 µM throughout.

As to `CO/N=C(\C(=O)N[C@@H]1C(=O)N2C(C(=O)O)=C(CSc3nc(=O)c(=O)[nH]n3C)CS[C@H]12)c1csc(N)n1`, the IC50 in experiment [1] was more than 133 µM; on Bile salt export pump, more than 133 µM; in experiment [2] it was 35.6 µM; in experiment [3], more than 133 µM.

As to `NCC1O[C@H](O[C@H]2[C@@H](O)[C@H](O[C@H]3[C@H](O)[C@@H](N)C[C@@H](N)[C@@H]3O[C@H]3O[C@H](CN)[C@@H](O)[C@H](O)[C@H]3N)O[C@@H]2CO)[C@H](N)[C@@H](O)[C@@H]1O` (stereo partly specified), the IC50 (in experiment [1]; on Bile salt export pump; in experiment [2]; in experiment [3]) was more than 133 µM each time.

For `c1cnc2cc3c(cc2n1)[C@@H]1CNC[C@H]3C1`, the concentration for half-maximal inhibition (IC50) (in experiment [1]; on Bile salt export pump; in experiment [2]; in experiment [3]) was more than 133 µM in each case.

`C[C@@H](O)[C@H]1C(=O)N2C(C(=O)O)=C(S[C@@H]3CN[C@H](C(=O)Nc4cccc(C(=O)O)c4)C3)[C@H](C)[C@H]12`: the IC50 in experiment [1] is more than 133 µM; at Bile salt export pump, more than 133 µM; in experiment [2], more than 133 µM; in experiment [3] it was 56.2 µM.

With `C=C1[C@H](CO)[C@@H](O)C[C@@H]1n1cnc2c(=O)[nH]c(N)nc21`, the concentration for half-maximal inhibition (IC50) (in experiment [1]; at Bile salt export pump; in experiment [2]; in experiment [3]) was more than 133 µM each time.

With `CO[C@H]1O[C@@H]2O[C@@]3(C)CC[C@H]4[C@H](C)CC[C@@H]([C@H]1C)[C@@]24OO3`, the 50% inhibitory concentration (IC50) (in experiment [1]; at Bile salt export pump; in experiment [2]; in experiment [3]) was more than 133 µM each time.

As to `Nc1nc(N)c2nc(-c3ccccc3)c(N)nc2n1`, the IC50 (in experiment [1]; at Bile salt export pump; in experiment [2]; in experiment [3]) was more than 133 µM throughout.

Consider `Cc1onc(-c2ccccc2)c1C(=O)N[C@@H]1C(=O)N2[C@@H]1SC(C)(C)[C@@H]2C(=O)O`, for which the IC50 (in experiment [1]; at Bile salt export pump; in experiment [2]; in experiment [3]) was more than 133 µM in each case.

Turning to `CN1CC(=O)N2[C@H](c3ccc4c(c3)OCO4)c3[nH]c4ccccc4c3C[C@@H]2C1=O`, the half-maximal inhibitory concentration (IC50) (in experiment [1]; at Bile salt export pump; in experiment [2]; in experiment [3]) was more than 133 µM throughout.

Regarding `N[C@@H](Cc1ccc(N(CCCl)CCCl)cc1)C(=O)O`, the IC50 (in experiment [1]; at Bile salt export pump; in experiment [2]; in experiment [3]) was more than 133 µM throughout.

For `C=C1CC[C@@]2(O)[C@H]3Cc4ccc(O)c5c4[C@@]2(CCN3CC2CC2)[C@H]1O5`, the half-inhibitory concentration (IC50) (in experiment [1]; on Bile salt export pump; in experiment [2]; in experiment [3]) was more than 133 µM throughout.

On to `NCCCC[C@H](NC(=O)[C@@H]1CCCN1C(=O)[C@@H]1CSSC[C@H](NC(=O)CNC(=O)CNC(=O)CN)C(=O)N[C@@H](Cc2ccc(O)cc2)C(=O)N[C@@H](Cc2ccccc2)C(=O)N[C@@H](CCC(N)=O)C(=O)N[C@@H](CC(N)=O)C(=O)N1)C(=O)NCC(N)=O` (H-GGGCYFQNCPKG-NH2; disulfide 4-9), for which the IC50 (in experiment [1]; at Bile salt export pump; in experiment [2]; in experiment [3]) was more than 133 µM in each case.

For the compound `N=C(N)NCCCC[C@@H]1NC(=O)CCSSC[C@@H](C(N)=O)NC(=O)[C@@H]2CCCN2C(=O)[C@H](Cc2c[nH]c3ccccc23)NC(=O)[C@H](CC(=O)O)NC(=O)CNC1=O` ([Mpa][hArg]GDWPC-NH2; disulfide 1-7), the IC50 (in experiment [1]; at Bile salt export pump; in experiment [2]; in experiment [3]) was more than 133 µM throughout.

As for `S=C=Nc1cccc2ccccc12` [1-NAPHTHYLISOTHIOCYANATE], the half-maximal inhibitory concentration (IC50) was more than 133 µM in experiment [1], 69 µM at Bile salt export pump, more than 133 µM in experiment [2] and more than 133 µM in experiment [3].

In the case of `C[C@]12CC[C@H](O)CC1=CC[C@@H]1[C@@H]2CC[C@]2(C)C(c3cccnc3)=CC[C@@H]12` [ABIRATERONE], the IC50 (in experiment [1]; at Bile salt export pump; in experiment [2]; in experiment [3]) was more than 133 µM each time.
